# According to article PMC11204507, “Mechanistic Insights into the Neurotoxicity of 2,5-Dimethoxyphenethylamines (2C) and Corresponding N-(2-methoxybenzyl)phenethylamine (NBOMe) Drugs” (Journal of Xenobiotics, 2024):
# Like-named read-outs stand apart in the source and are kept apart here.
# Key:
# TK6 cells = system: TK6 cells; design: method as in PMID 33348640; conditions: 1 h, cited from earlier work
# [1] = system: differentiated SH-SY5Y cells; design: method as in PMID 37631071, PMID 25900438; conditions: same in vitro model; cited from earlier work
# [2] = system: differentiated SH-SY5Y cells; design: method as in PMID 37631071, PMID 25900438; conditions: same in vitro model; cited from earlier work; remark: listed apart in the source
# [3] = system: differentiated SH-SY5Y cells; conditions: same experimental conditions; cited from earlier work
# MAO-A and MAO-B = conditions: rat model; cited from earlier work
# serotonergic B65 cells = system: serotonergic B65 cells; design: method as in doi:10.1007/s11419-020-00527-w; conditions: cited from earlier work
# [4] = system: differentiated SH-SY5Y cells; assay: Intracellular calcium levels, Fluo-4 AM probe; type: cell-based, human; conditions: positive control, 25 mM
# Method: Calcium is a vital second messenger for almost every cellular process, including cellular signaling, muscle function, neurotransmitter release, membrane function, and apoptosis. Therefore, its levels inside cells are strictly controlled to maintain cellular homeostasis. The intracellular calcium levels were measured using the cell-permeable Fluo-4 AM probe. Inside the cells, Fluo-4 AM is cleaved to its active and fluorescent form—Fluo-4—which has a high affinity for calcium ions (Ca^2⁺). Thus, its fluorescence emission is directly proportional to the concentration of calcium ions in the intracellular environment.
# Therefore, the SH-SY5Y cells were seeded onto 96-well plates (25,000 cells/cm^2) following the previously described seeding and differentiation protocol. […] The average value for negative control (EGTA-treated cells) was subtracted from every other condition and then the minimum average value was subtracted from the maximum average value for every other condition. The results are presented as a percentage relative to the control cells (0 µM). A minimum of 5 independent experiments were conducted in triplicate.
# [5] = system: dopaminergic CATH.a cells and 5-HT-containing B65 cells; design: method as in doi:10.1007/s11419-020-00527-w; conditions: 24 h exposure; read-out: EC50, LDH assay; cited from earlier work
# [6] = system: differentiated SH-SY5Y cells; assay: Intracellular ROS/RNS levels, DCFH-DA probe; type: cell-based, human; conditions: positive control, 24 h
# Method: Reactive species play important roles in cell signaling and immune response. However, when their levels are excessive, they can cause oxidative stress and damage the cells. The intracellular reactive oxygen species (ROS) and reactive nitrogen species (RNS) levels were measured using the cell-permeable DCFH-DA probe. Inside the cells, DCFH-DA is cleaved by cellular esterases originating DCFH, which is oxidized by ROS/RNS, resulting in the fluorescent 2′,7′-dichlorofluorescein (DCF).
# Therefore, the SH-SY5Y cells were seeded onto 96-well plates (25,000 cells/cm^2) following the previously described seeding and differentiation protocol. […] Tert-butyl hyoperoxide (t-BHP, 100 µM, 24 h) was used as a positive control.
# At the end of the incubation period, the DCF fluorescence was measured at an excitation wavelength of 485 nm and an emission wavelength of […] in a multi-well plate reader (PowerWaveX, BioTek Instruments, Winooski, VT, USA). The detection of ROS/RNS was assessed by the percent of probe oxidation relative to the control cells (0 µM), and a minimum of 4 independent experiments were conducted in triplicate.
compound,measurement,setting,value
COc1cc(CCN)c(OC)cc1Br [2C-B],increase in ROS levels,TK6 cells; 12.5 µM,two-fold
same,tGSH content,[1],significant decrease in the tGSH content
same,ROS production,[2],no ROS production
same,drug-induced cytotoxicity upon MAO inhibition,[3],significant increase in the drug-induced cytotoxicity was observed upon MAO inhibition
same,deamination by MAO-A and MAO-B,MAO-A and MAO-B,both isoenzymes can catalyze the deamination
COc1ccc(OC)c(CCN)c1 [2C-H],increase in ROS levels,TK6 cells; 35 µM,two-fold
COc1cc(CCN)c(OC)cc1I [2C-I],mitochondrial production of ROS,serotonergic B65 cells,increase in the mitochondrial production of ROS
same,increase in ROS levels,TK6 cells; 35 µM,two-fold
same,deamination by MAO-A and MAO-B,MAO-A and MAO-B,both isoenzymes can catalyze the deamination
COc1cc(CCNCc2ccccc2OC)c(OC)cc1Br [25B-NBOMe],increase in ROS levels,TK6 cells; 12.5 µM,two-fold
same,tGSH content,[1],significant decrease in the tGSH content
same,ROS production,[2],no ROS production
"[Ca+2].[Cl-].[Cl-] [CaCl2, reference compound]","Ca2+ intracellular levels, % of control cells",[4],141.0%
"CNC(C)Cc1ccc2c(c1)OCO2 (centres unmarked) [MDMA, 3,4-methylenedioxymethamphetamine]",EC50,[5],1.5 to 3 mM
CN[C@@H](C)Cc1ccccc1 [methamphetamine],EC50,[5],1.5 to 3 mM
"CC(C)(C)OO [t-BHP, tert-butyl hydroperoxide]",activity at 100 µM,"[6]; Homo sapiens, SH-SY5Y, control 100.0%",188%
same,increase of ROS levels,[6]; 100 µM,approximately 90%
